Laboratory results as given in patent US8492376B2, “Heteroaryl-cyclohexyl-tetraazabenzo[e]azulenes” (Hoffmann-La Roche Inc., priority 2010, dated 2013).
Counter-ions that a name gives are not always drawn.

Target: T1, human V1a receptor (Homo sapiens, UniProt P37288)
T1 construct: expressed in transfected cells; host or cells: HEK293 cells, transiently transfected; cell membranes
Experiment: human V1a receptor binding studies (3H-Vasopressin, SPA beads)
Conditions: membranes from HEK293 cells transiently transfected with human V1a receptor, Ki calculated from IC50 by the Cheng-Prussoff equation, read-out: pKi (hV1a) (converted)
Experimental: The human V1a receptor was cloned by RT-PCR from total human liver RNA. The coding sequence was subcloned in an expression vector after sequencing to confirm the identity of the amplified sequence. […] Cell membranes were prepared from HEK293 cells transiently transfected with the expression vector and grown in 20 liter fermenters with the following protocol.
50 g of cells are resuspended in 30 ml freshly prepared ice cold Lyses buffer (50 mM HEPES, 1 mM EDTA, 10 mM magnesium dichloride adjusted to pH=7.4+complete cocktail of protease inhibitor (Roche Diagnostics)). Homogenized with Polytron for 1 min and solicited on ice for 2×2 minutes at 80% intensity (Vibrate solicitor). The preparation is centrifuged 20 min at 500 g at 4° C., the pellet is discarded and the supernatant centrifuged 1 hour at 43′000 g at 4° C. (19′000 rpm). The pellet is resuspended in 12.5 ml Lyses buffer+12.5 ml sucrose 20% and homogenized using a Polytron for 1-2 min. The protein concentration is determined by the Bradford method and aliquots are stored at −80° C. until use. For binding studies 60 mg Yttrium silicate SPA beads (Habersham®) are mixed with an aliquot of membrane in binding buffer (50 mM Tris, 120 mM sodium chloride, 5 mM potassium chloride, 2 mM calcium dichloride, 10 mM magnesium dichloride) for 15 minutes with mixing. 50 μl of bead/membrane mixture is then added to each well of a 96 well plate, followed by 50 μl of 4 nM 3H-Vasopressin (American Radiolabeled Chemicals). For total binding measurement 100 μl of binding buffer are added to the respective wells, for non-specific binding 100 μl of 8.4 mM cold vasopressin and for compound testing 100 μl of a serial dilution of each compound in 2% dimethyl sulfoxide. The plate is incubated 1 h at room temperature, centrifuged 1 min at 1000 g and counted on a Packard Top-Count. Non-specific binding counts are subtracted from each well and data is normalized to the maximum specific binding set at 100%. To calculate an IC50 the curve is fitted using a non-linear regression model (XLfit) and the Ki is calculated using the Cheng-Prussoff equation.

T1 sequence (P37288 whole entry): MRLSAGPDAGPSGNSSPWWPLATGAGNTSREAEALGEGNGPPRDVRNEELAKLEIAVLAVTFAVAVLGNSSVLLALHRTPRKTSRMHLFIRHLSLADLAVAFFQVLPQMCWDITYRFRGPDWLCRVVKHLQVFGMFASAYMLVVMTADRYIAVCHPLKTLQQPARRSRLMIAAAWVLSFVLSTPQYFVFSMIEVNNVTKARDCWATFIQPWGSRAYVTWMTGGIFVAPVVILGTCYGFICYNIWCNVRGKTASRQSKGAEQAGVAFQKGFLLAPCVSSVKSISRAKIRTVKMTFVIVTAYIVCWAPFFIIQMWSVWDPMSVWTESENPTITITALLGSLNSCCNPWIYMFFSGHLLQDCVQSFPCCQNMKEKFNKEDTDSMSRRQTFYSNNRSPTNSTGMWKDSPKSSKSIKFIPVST

SMILES | Ki [nM]
CN1Cc2cc(Cl)ccc2-n2c(nnc2[C@H]2CC[C@H](c3ccccn3)CC2)C1 [Example 3, trans-8-Chloro-5-methyl-1-(4-pyridin-2-yl-cyclohexyl)-5,6-dihydro-4H-2,3,5,10b-tetraaza-benzo[e]azulene] | 0.794
CC(C)(C)OC(=O)N1Cc2cc(Cl)ccc2-n2c(nnc2[C@H]2CC[C@H](c3ccc(F)cn3)CC2)C1 [Example 22, trans-8-Chloro-1-[4-(5-fluoro-pyridin-2-yl)-cyclohexyl]-4H,6H-2,3,5,10b-tetraaza-benzo[e]azulene-5-carboxylic acid tert-butyl ester] | 0.302
Cc1cncc([C@H]2CC[C@H](c3nnc4n3-c3ccc(Cl)cc3CNC4)CC2)n1 [Example 73, trans-8-Chloro-1-[4-(6-methyl-pyrazin-2-yl)-cyclohexyl]-5,6-dihydro-4H-2,3,5,10b-tetraaza-benzo[e]azulene] | 55
Clc1ccc2c(c1)CNCc1nnc([C@H]3CC[C@H](c4cnccn4)CC3)n1-2 [Example 70, trans-8-Chloro-1-(4-pyrazin-2-yl-cyclohexyl)-5,6-dihydro-4H-2,3,5,10b-tetraaza-benzo[e]azulene] | 15.1
Clc1ccc2c(c1)CNCc1nnc([C@H]3CC[C@H](c4cccnc4Cl)CC3)n1-2 [Example 52, trans-8-Chloro-1-[4-(2-chloro-pyridin-3-yl)-cyclohexyl]-5,6-dihydro-4H-2,3,5,10b-tetraaza-benzo[e]azulene] | 81.3
Cc1cc(C)nc([C@H]2CC[C@H](c3nnc4n3-c3ccc(Cl)cc3CN(C)C4)CC2)n1 [Example 65, trans-8-Chloro-1-[4-(4,6-dimethyl-pyrimidin-2-yl)-cyclohexyl]-5-methyl-5,6-dihydro-4H-2,3,5,10b-tetraaza-benzo[e]azulene] | 2.29
CC(C)c1cccc([C@H]2CC[C@H](c3nnc4n3-c3ccc(Cl)cc3CN(C)C4)CC2)n1 [Example 12, trans-8-Chloro-1-[4-(6-isopropyl-pyridin-2-yl)-cyclohexyl]-5-methyl-5,6-dihydro-4H-2,3,5,10b-tetraaza-benzo[e]azulene] | 8.51
Cc1nccnc1[C@H]1CC[C@H](c2nnc3n2-c2ccc(Cl)cc2CN(C(=O)OC(C)(C)C)C3)CC1 [Example 75, trans-8-Chloro-1-[4-(3-methyl-pyrazin-2-yl)-cyclohexyl]-4H,6H-2,3,5,10b-tetraaza-benzo[e]azulene-5-carboxylic acid tert-butyl ester] | 1.2
CC(C)(C)OC(=O)N1Cc2cc(Cl)ccc2-n2c(nnc2[C@H]2CC[C@H](c3cccc(F)n3)CC2)C1 [Example 19, trans-8-Chloro-1-[4-(6-fluoro-pyridin-2-yl)-cyclohexyl]-4H,6H-2,3,5,10b-tetraaza-benzoazulene-5-carboxylic acid tert-butyl ester] | 0.603
CN(C)CC(=O)N1Cc2cc(Cl)ccc2-n2c(nnc2[C@H]2CC[C@H](c3ncccc3F)CC2)C1 [Example 39, trans-1-{8-Chloro-1-[4-(3-fluoro-pyridin-2-yl)-cyclohexyl]-4H,6H-2,3,5,10b-tetraaza-benzo[e]azulen-5-yl}-2-dimethylamino-ethanone formate] | 2.51
CN1Cc2cc(Cl)ccc2-n2c(nnc2[C@H]2CC[C@H](c3cc(Cl)ccn3)CC2)C1 [Example 27, trans-8-Chloro-1-[4-(4-chloro-pyridin-2-yl)-cyclohexyl]-5-methyl-5,6-dihydro-4H-2,3,5,10b-tetraaza-benzo[e]azulene] | 0.537
Cc1cccc([C@H]2CC[C@H](c3nnc4n3-c3ccc(Cl)cc3CN(C(=O)OC(C)(C)C)C4)CC2)n1 [Example 4, trans-8-Chloro-1-[4-(6-methyl-pyridin-2-yl)-cyclohexyl]-4H,6H-2,3,5,10b-tetraaza-benzo[e]azulene-5-carboxylic acid tert-butyl ester] | 0.2
CC(C)(C)OC(=O)N1Cc2cc(Cl)ccc2-n2c(nnc2[C@H]2CC[C@H](c3cccnc3F)CC2)C1 [Example 54, trans-8-Chloro-1-[4-(2-fluoro-pyridin-3-yl)-cyclohexyl]-4H,6H-2,3,5,10b-tetraaza-benzo[e]azulene-5-carboxylic acid tert-butyl ester] | 1
CN1Cc2cc(Cl)ccc2-n2c(nnc2[C@H]2CC[C@H](c3cccc(F)n3)CC2)C1 [Example 21, trans-8-Chloro-1-[4-(6-fluoro-pyridin-2-yl)-cyclohexyl]-5-methyl-5,6-dihydro-4H-2,3,5,10b-tetraaza-benzo[e]azulene] | 1.82
Fc1ncccc1[C@H]1CC[C@H](c2nnc3n2-c2ccc(Cl)cc2CNC3)CC1 [Example 55, trans-8-Chloro-1-[4-(2-fluoro-pyridin-3-yl)-cyclohexyl]-5,6-dihydro-4H-2,3,5,10b-tetraaza-benzo[e]azulene] | 69.2
CN1Cc2cc(Cl)ccc2-n2c(nnc2[C@H]2CC[C@H](c3cccc(Cl)n3)CC2)C1 [Example 18, trans-8-Chloro-1-[4-(6-chloro-pyridin-2-yl)-cyclohexyl]-5-methyl-5,6-dihydro-4H-2,3,5,10b-tetraaza-benzo[e]azulene] | 0.603
CC(C)(C)OC(=O)N1Cc2cc(F)ccc2-n2c(nnc2[C@H]2CC[C@H](c3ncccc3F)CC2)C1 [Example 42, trans-8-Fluoro-[4-(3-fluoro-pyridin-2-yl)-cyclohexyl]-4H,6H-2,3,5,10b-tetraaza-benzo[e]azulene-5-carboxylic acid tert-butyl ester] | 0.525
CC(C)(C)OC(=O)N1Cc2cc(Cl)ccc2-n2c(nnc2[C@H]2CC[C@@H](c3ncccc3F)CC2)C1 [Example 45, cis-8-Chloro-1-[4-(3-fluoro-pyridin-2-yl)-cyclohexyl]-4H,6H-2,3,5,10b-tetraaza-benzo[e]azulene-5-carboxylic acid tert-butyl ester] | 5.01
CN1Cc2cc(Cl)ccc2-n2c(nnc2[C@H]2CC[C@H](c3ncc(F)cc3F)CC2)C1 [Example 87, trans-8-Chloro-1-[4-(3,5-difluoro-pyridin-2-yl)-cyclohexyl]-5-methyl-5,6-dihydro-4H-2,3,5,10b-tetraaza-benzo[e]azulene] | 1.29
CN1Cc2cc(Cl)ccc2-n2c(nnc2[C@H]2CC[C@H](c3ccc(F)cn3)CC2)C1 [Example 24, trans-8-Chloro-1-[4-(5-fluoro-pyridin-2-yl)-cyclohexyl]-5-methyl-5,6-dihydro-4H-2,3,5,10b-tetraaza-benzo[e]azulene] | 1
Cc1cnc(C)c([C@H]2CC[C@H](c3nnc4n3-c3ccc(Cl)cc3CN(C)C4)CC2)n1 [Example 80, trans-8-Chloro-1-[4-(3,6-dimethyl-pyrazin-2-yl)-cyclohexyl]-5-methyl-5,6-dihydro-4H-2,3,5,10b-tetraaza-benzo[e]azulene] | 7.24
Cc1cccc([C@H]2CC[C@H](c3nnc4n3-c3ccc(Cl)cc3CN(C)C4)CC2)n1 [Example 6, trans-8-Chloro-1-[4-(6-methyl-pyridin-2-yl)-cyclohexyl]-5-methyl-5,6-dihydro-4H-2,3,5,10b-tetraaza-benzo[e]azulene] | 0.891
Fc1cccnc1[C@H]1CC[C@H](c2nnc3n2-c2ccc(Cl)cc2CN(CC(F)F)C3)CC1 [Example 34, trans-8-Chloro-5-(2,2-difluoro-ethyl)-[4-(3-fluoro-pyridin-2-yl)-cyclohexyl]-5,6-dihydro-4H-2,3,5,10b-tetraaza-benzo[e]azulene] | 0.186
CC(C)c1cccc([C@H]2CC[C@H](c3nnc4n3-c3ccc(Cl)cc3CN(C(=O)OC(C)(C)C)C4)CC2)n1 [Example 10, trans-8-Chloro-1-[4-(6-isopropyl-pyridin-2-yl)-cyclohexyl]-4H,6H-2,3,5,10b-tetraaza-benzo[e]azulene-5-carboxylic acid tert-butyl ester] | 2.19
Cc1nccc([C@H]2CC[C@H](c3nnc4n3-c3ccc(Cl)cc3CN(C(=O)OC(C)(C)C)C4)CC2)n1 [Example 66, trans-8-Chloro-1-[4-(2-methyl-pyrimidin-4-yl)-cyclohexyl]-4H,6H-2,3,5,10b-tetraaza-benzo[e]azulene-5-carboxylic acid tert-butyl ester] | 9.77
CCc1cccc([C@H]2CC[C@H](c3nnc4n3-c3ccc(Cl)cc3CN(C(=O)OC(C)(C)C)C4)CC2)n1 [Example 7, trans-8-Chloro-1-[4-(6-ethyl-pyridin-2-yl)-cyclohexyl]-4H,6H-2,3,5,10b-tetraaza-benzo[e]azulene-5-carboxylic acid tert-butyl ester] | 1
Cc1cnc(C)c([C@H]2CC[C@H](c3nnc4n3-c3ccc(Cl)cc3CNC4)CC2)n1 [Example 79, trans-8-Chloro-1-[4-(3,6-dimethyl-pyrazin-2-yl)-cyclohexyl]-5,6-dihydro-4H-2,3,5,10b-tetraaza-benzo[e]azulene hydrochloride] | 6.76
